Experimental findings from US20070142437A1, “CHEMICAL COMPOUNDS” (priority 2005, published 2007) are described below.

The IC50 is the point on the concentration scale where inhibition reaches its midpoint. Read a high IC50 as weaker potency.

What all share (format): biochemical
In one assay the target is T1, CDK4 (Homo sapiens, UniProt P11802).
T1 construct: made in house
Kind of assay: CDK4 substrate phosphorylation assay (Rb protein, 33P-ATP). As to conditions: Inhibition of CDK4. The procedure: (§1) The compounds of the present invention have valuable pharmacologic properties. Different compounds from this class are particularly effective at inhibiting CDK2 and/or CDK4 enzymes at concentrations, which range from 0.0001 to 1 μM and additionally show specificity relative to other kinases. Substrate phosphorylation assays were carried out as follows:
Cyclin D1 and cyclin-dependent kinase 4 were expressed utilizing a baculovirus expression system. The catalytic activity of CDK4 protein was assayed by measuring the phosphorylation of Rb protein. A truncated Rb protein (residues 773-928 of the native retinoblastoma protein, fused to glutathione S-transferase to facilitate purification) was used as the phosphoryl acceptor. The assay conditions were 100 mM HEPES (N-[2-hydroxyethyl]piperzine-N′-[2-ethanesulfonic acid]), pH 7.5, 0.5 μM GST-Rb protein, 1 μCi/mL [^33P]-ATP (1 nM-20 μM), 5-20 mM MgCl2, 2.5 mM EDTA, 1 mM dithiotheitol, 0.2 mg/mL bovine serum albumin, 2% (v/v) dimethyl sulfoxide (DMSO), CDK4 enzyme (5-50 nM) in a final volume of 50 μL. Reactions were incubated for time periods of 10-60 min at 30° C. and terminated by the addition of 50 μL quench (1 mM ATP/100 mM EDTA, pH 7.0). Detection of protein phosphorylation was accomplished by scintillation counting following collection of protein in 96 well plates coated with Glutathione or trapping of protein onto phosphocellulose filters. Counts detected by these methodologies minus the appropriate background were assumed to be proportional to the reaction initial rates. IC50 values were determined by measuring enzyme activity in the presence of different inhibitor concentrations (0.1 nM to 50 μM). IC50s were determined by a least squares fit to the equation CPM=Vmax*(1−([I]/(K+[I])))+nsb, or pIC50s were determined by a fit to the equation CPM=nsb+(Vmax−nsb)/(1+(x/10^x−pIC50)), where nsb are the background counts.

For a further assay, the target named is T2, CDK2 (Homo sapiens, UniProt P24941).
T2 construct: made in house
Kind of assay: CDK2 substrate phosphorylation assay (biotinylated peptide, 32P-ATP). As to conditions: Inhibition of CDK2. The procedure: as §1
Cyclin dependent protein kinase 2 assays utilized the peptide Biotin-aminohexyl-ARRPMSPKKKA-NH2 as phosphoryl group acceptor. CDK2 was expressed utilizing a baculovirus expression system and was partially purified to comprise 20-80% of total protein, with no detectable competing reactions present. Typically, assays were performed by incubating enzyme (0.2-10 nM), with and without inhibitor, peptide substrate (1-10 nM), [g-^32P]ATP (1-20 nM), and 10-20 mM Mg^2+ for periods of time generally within the range 10-120 minutes. Reactions were terminated with 0.2-2 volumes of either 20% acetic acid or 50-100 mM EDTA buffered to pH 7 (substrate consumption <20%). The buffer employed in enzyme assay was 100 mM HEPES pH 7.5 containing 0.1 mg/mL BSA and 5% DMSO. Inhibitors were diluted in 100% DMSO prior to addition into the assay. Detection of peptide phosphorylation was accomplished by scintillation counting following either collection of peptide onto phosphocellulose filters (for reactions stopped with acetic acid), collection of peptide in wells of 96 well plates coated with Streptavidin (Pierce) (reactions were stopped with EDTA), or addition of Avidin coated Scintillant impregnated beads (Scintillation Proximity Assays from Amersham, reactions were stopped with EDTA). Counts detected by any of these methodologies minus the appropriate background (assays with additional 40 mM EDTA or lacking peptide substrate) were assumed to be proportional to the reaction initial rates, and IC50s were determined by a least squares fit to the equation CPM=Vmax*(1−([I]/(K+[I])))+nsb, or −pIC50s were determined by a fit to the equation CPM=nsb+(Vmax−nsb)/(1+(x/10^x−pIC50)), where nsb are the background counts. Filters are washed four times with 75 mM phosphoric acid. Radioactivity was determined by liquid scintillation counting.

For the next assay, the target named is hVEGFR2 (Homo sapiens, UniProt P35968). Kind of assay: VEGFR2 HTRF assay. As to conditions: Inhibition of VEGFR2. The procedure:
The compounds of the present invention elicit important and measurable pharmacological responses. Different compounds from this class are particularly effective at inhibiting VEGFR2 enzymes, as described by the VEGFR2 HTRF assay below, at concentrations, which range from 0.0001 to 1 μM.
The assays were performed in 96-well black plates. 10 nM hVEGFR2 was used to phosphorylate 0.36 μM peptide (Biotin-Ahx-EEEEYFELVAKKKK) in the presence of 75 μM ATP, 5 mM MgCl2, 0.3 mM DTT, 0.1 mg/ml BSA, and 0.1 M HEPES (pH 7.5). 10 μl 0.5 M EDTA was added to reactions as negative controls. The 50 μl kinase reaction with or without inhibitors in 5% DMSO was carried out at room temperature for 45 minutes, then stopped by 40 μl of 125 mM EDTA. 2.4 μg/ml Streptavidin-APC and 0.15 μg/ml Eu-α-pY, in the presence of 0.1 mg/ml BSA, 0.1 M HEPES (pH7.5), were added to a final volume of 140 μl. The plate was incubated for 10 min at room temperature (22° C.) and read on the Victor with the time resolved fluorescence mode by exciting at 340 nm and reading the emission at 665 nm.
• Peptide from Synpep (Dublin, Calif.) • ATP, MgCl2, DTT, BSA, HEPES, EDTA, DMSO from Sigma Streptavidin-APC from Molecular Probes (Eugene, Oreg.) • Eu-α-pY from EG&G Wallac (Gaithersburg, Md.)
A general note: In TR-FRET formats the signal depends on donor and acceptor labels being close together.

Where only a bound is given, the exact number is not on record here.

T1 sequence (P11802 whole entry, species assumed): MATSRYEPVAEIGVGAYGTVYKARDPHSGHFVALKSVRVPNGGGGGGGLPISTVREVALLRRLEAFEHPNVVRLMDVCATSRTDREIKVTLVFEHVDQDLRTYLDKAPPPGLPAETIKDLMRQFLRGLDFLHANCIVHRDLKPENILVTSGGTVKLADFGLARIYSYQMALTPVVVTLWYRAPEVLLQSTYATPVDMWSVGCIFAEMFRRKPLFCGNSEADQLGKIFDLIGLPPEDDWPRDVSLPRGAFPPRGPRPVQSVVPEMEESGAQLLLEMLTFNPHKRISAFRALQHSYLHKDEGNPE
T1 sequence (P24385 whole entry partner, species assumed): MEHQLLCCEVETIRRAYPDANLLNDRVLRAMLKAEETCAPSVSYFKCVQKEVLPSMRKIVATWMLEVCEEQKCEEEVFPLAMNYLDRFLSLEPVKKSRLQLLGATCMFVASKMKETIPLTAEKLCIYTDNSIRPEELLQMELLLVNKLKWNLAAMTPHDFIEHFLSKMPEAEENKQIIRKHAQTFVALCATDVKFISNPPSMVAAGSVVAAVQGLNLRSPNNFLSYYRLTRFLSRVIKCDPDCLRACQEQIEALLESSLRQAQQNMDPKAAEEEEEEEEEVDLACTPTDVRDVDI
hVEGFR2, sequence (P35968 20-1356): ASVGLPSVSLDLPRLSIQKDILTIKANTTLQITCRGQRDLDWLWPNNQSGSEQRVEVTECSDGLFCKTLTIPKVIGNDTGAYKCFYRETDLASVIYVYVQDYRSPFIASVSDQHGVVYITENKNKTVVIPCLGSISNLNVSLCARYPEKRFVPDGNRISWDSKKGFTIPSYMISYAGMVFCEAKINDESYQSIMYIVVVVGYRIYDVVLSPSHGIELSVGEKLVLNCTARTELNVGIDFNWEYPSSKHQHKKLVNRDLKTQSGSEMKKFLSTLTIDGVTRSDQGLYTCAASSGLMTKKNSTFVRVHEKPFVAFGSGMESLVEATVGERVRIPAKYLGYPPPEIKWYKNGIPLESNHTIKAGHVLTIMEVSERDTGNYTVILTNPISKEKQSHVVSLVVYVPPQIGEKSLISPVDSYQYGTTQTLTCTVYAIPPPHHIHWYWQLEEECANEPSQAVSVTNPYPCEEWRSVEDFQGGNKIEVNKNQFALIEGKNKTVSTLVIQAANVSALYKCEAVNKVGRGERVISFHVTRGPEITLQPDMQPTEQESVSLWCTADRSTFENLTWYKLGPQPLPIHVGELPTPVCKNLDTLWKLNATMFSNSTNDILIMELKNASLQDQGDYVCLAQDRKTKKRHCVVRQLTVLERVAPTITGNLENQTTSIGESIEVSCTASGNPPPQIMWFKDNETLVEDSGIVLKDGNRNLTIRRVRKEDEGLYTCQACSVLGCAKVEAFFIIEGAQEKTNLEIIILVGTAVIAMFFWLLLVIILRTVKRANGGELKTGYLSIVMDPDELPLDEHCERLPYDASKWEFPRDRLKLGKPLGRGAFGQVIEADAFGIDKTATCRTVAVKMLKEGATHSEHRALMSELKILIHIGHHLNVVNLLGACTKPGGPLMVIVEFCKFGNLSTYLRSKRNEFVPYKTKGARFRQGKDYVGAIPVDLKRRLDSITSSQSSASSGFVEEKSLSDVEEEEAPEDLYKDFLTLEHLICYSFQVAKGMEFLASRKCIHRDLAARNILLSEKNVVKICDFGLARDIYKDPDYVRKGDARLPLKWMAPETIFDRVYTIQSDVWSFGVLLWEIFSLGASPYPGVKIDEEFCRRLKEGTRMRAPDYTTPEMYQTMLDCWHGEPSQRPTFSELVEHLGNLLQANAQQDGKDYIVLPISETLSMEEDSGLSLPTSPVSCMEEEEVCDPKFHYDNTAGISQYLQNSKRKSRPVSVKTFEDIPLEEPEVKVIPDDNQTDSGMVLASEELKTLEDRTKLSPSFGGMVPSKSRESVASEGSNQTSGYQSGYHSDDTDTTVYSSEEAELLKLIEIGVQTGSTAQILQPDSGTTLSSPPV

Consider `COc1cccc(-c2cnc(Nc3ccc(CN(C)C)cc3)o2)c1` [Example 40, N-{4-[(dimethylamino)methyl]phenyl}-5-(3-methoxyphenyl)-1,3-oxazol-2-amine], for which the IC50 against CDK4 was less than 0.1 µM; at CDK2 it was less than 1 µM; against hVEGFR2, less than 1 µM.

With `COc1cccc(-c2cnc(Nc3ccc(CCN(C)C)cc3)o2)c1` [Example 42], the half-inhibitory concentration (IC50) at CDK4 was less than 0.1 µM; at CDK2 it was less than 1 µM; against hVEGFR2, less than 1 µM.

Turning to `COc1cccc(-c2cnc(Nc3ccc(CN4CCCCC4)cc3)o2)c1` [Example 43, 5-(3-methoxyphenyl)-N-[4-(piperidin-1-ylmethyl)phenyl]-1,3-oxazol-2-amine], the 50% inhibitory concentration (IC50) is less than 0.1 µM at CDK4, less than 1 µM against CDK2 and less than 1 µM against hVEGFR2.

For `COc1cccc(-c2cnc(Nc3ccc(CN4CCCC4)cc3)o2)c1` [Example 44, 5-(3-methoxyphenyl)-N-[4-(pyrrolidin-1-ylmethyl)phenyl]-1,3-oxazol-2-amine], the IC50 was less than 0.1 µM against CDK4, less than 1 µM against CDK2 and less than 0.1 µM on hVEGFR2.

As to `CCN(CC)Cc1ccc(Nc2ncc(-c3cccc(OC)c3)o2)cc1` [Example 45, N-{4-[(diethylamino)methyl]phenyl}-5-(3-methoxyphenyl)-1,3-oxazol-2-amine], the IC50 on CDK4 was less than 0.1 µM; against CDK2, less than 1 µM; at hVEGFR2 it was less than 1 µM.

Consider `CCN(CC)CCNC(=O)c1ccc(Nc2ncc(-c3cccc(OC)c3)o2)cc1` [Example 46, N-[2-(diethylamino)ethyl]-4-{[5-(3-methoxyphenyl)-1,3-oxazol-2-yl]amino}benzamide], for which the half-maximal inhibitory concentration (IC50) at CDK4, against CDK2 and on hVEGFR2 was less than 1 µM throughout.

Consider `COc1cccc(-c2cnc(Nc3ccc(C(=O)N4CCN(C)CC4)cc3)o2)c1` [Example 47, 5-(3-methoxyphenyl)-N-{4-[(4-methylpiperazin-1-yl)carbonyl]phenyl}-1,3-oxazol-2-amine], for which the 50% inhibitory concentration (IC50) at CDK4, at CDK2 and at hVEGFR2 was less than 1 µM throughout.

In the case of `CCN(CC)CCNC(=O)c1ccc(Nc2ncc(-c3cccc(OC4CCCC4)c3)o2)cc1` [Example 48, 4-({5-[3-(cyclopentyloxy)phenyl]-1,3-oxazol-2-yl}amino)-N-[2-(diethylamino)ethyl]benzamide], the values for the half-inhibitory concentration (IC50) against CDK4, on CDK2 and on hVEGFR2 were less than 0.1 µM, less than 1 µM and less than 1 µM, respectively.
